Records with an inconclusive call do not appear. Active and inactive are the calls of the source.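 The calls were made as follows: active = compound lowering the normal-ribosome reporter at least twice as much as the humanized-ribosome reporter, growth loss under a set limit; inconclusive = no clear call, values can overlap the other calls; inactive = the rest.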
Tested on: E. coli WT-GFP vs G2058-humanized RFP, fluorescence, 24 h
Assay: growth inhibition of wild-type GFP E. coli versus G2058-humanized strain, dose response, G2058 mutant RFP vs wild-type GFP, cherry-pick, two tests (AID 1035470)
[1] = E. coli WT-GFP vs G2058-humanized RFP mixed culture, total growth OD600, 24 h
[2] = measured here: G2058 humanized mutant RFP growth

Q: With O=C(CSCc1cnn(-c2ccccc2)c1-n1cccc1)NCc1cccnc1 as the molecule, how does the AC50 [1] read?
A: > 100 µM

Q: Which AC50 [1] does the source give for C=C1c2cc3c(cc2NC(=S)N1Cc1ccccc1)OCO3 here?
A: > 100 µM

Q: Which AC50 does the source give for COC(=O)C[C@H]1C[C@@H]2c3cc(NC(=O)Nc4ccc(C(F)(F)F)cc4)ccc3O[C@@H]2[C@H](CO)O1 here?
A: > 100 µM (inactive)

Q: With O=C(c1ccc(N2CCCCC2)c([N+](=O)[O-])c1)N1CCN(c2ccccn2)CC1 as the molecule, how does the AC50 [1] read?
A: > 100 µM

Q: Which results are given for Cc1ccc(SCC(=O)Nc2ccc(S(=O)(=O)Nc3nccs3)cc2)cc1?
A: AC50: > 100 µM (inactive); AC50 [1]: > 100 µM

Q: With CN(C)CCNc1ncnc2c1sc1nc(N3CCCC3)c3c(c12)CC(C)(C)OC3 as the molecule, how does the AC50 read?
A: > 100 µM (inactive)

Q: What about the AC50 [1] of the same molecule?
A: > 100 µM

Q: Which AC50 does the source give for CC1CCC2(CC1)SCC(=O)N2c1ccc(F)cc1 (stereo unspecified) here?
A: > 100 µM (inactive)

Q: And the AC50 [1]?
A: > 100 µM

Q: What about the AC50 [2] of the same molecule?
A: 35.3 µM

Q: COc1ccc(NC(=O)c2ccc(-c3ccc([N+](=O)[O-])cc3)o2)cc1 was tested. Which AC50 did it give?
A: 9.28 µM

Q: And the AC50 (E. coli WT-GFP vs G2058-humanized RFP mixed culture, OD600 growth, 24 h, test 1)?
A: > 100 µM

Q: What about the AC50 (measured here: wild-type GFP, test 1) of the same molecule?
A: 4.75 µM

Q: Cc1ccc(NS(=O)(=O)c2ccc3c(c2)CCC(=O)N3)cc1C was tested. Which AC50 did it give?
A: > 100 µM (inactive)

Q: And the AC50 [1]?
A: > 100 µM

Q: Which AC50 does the source give for CN(C)CCCN(C(=O)CCOc1ccccc1)c1nc2c(F)cccc2s1 here?
A: > 100 µM (inactive)

Q: CCOC(=O)c1cnc2c(c(C)nn2C)c1Oc1ccc(OC)cc1 was tested. Which AC50 did it give?
A: > 100 µM (inactive)

Q: Which AC50 does the source give for Cc1nn(CC(=O)OCCOc2ccc(Br)cc2)c(C)c1[N+](=O)[O-] here?
A: > 100 µM (inactive)

Q: For COc1ccc(OC)c(-c2csc(NC(=O)C3COc4ccccc4O3)n2)c1 (stereo unspecified), which AC50 is on record?
A: > 100 µM (inactive)

Q: And the AC50 [1]?
A: > 100 µM

Q: For COc1ccc(OC)c(-c2nnc3n2N=C(c2ccc(OC)c(OC4CCOC4)c2)CS3)c1 (stereo unspecified), which AC50 is on record?
A: > 100 µM (inactive)

Q: COC(=O)c1sccc1NC(=O)CNC(=O)c1ccccc1 was tested. Which AC50 [1] did it give?
A: > 100 µM

Q: O=C(O)CC(CC(=O)Nc1ccc2ccccc2n1)c1ccccc1 (stereo unspecified) was tested. Which AC50 [2] did it give?
A: > 100 µM

Q: For O=C(Nc1ccc2c(c1)OCO2)c1ccc([N+](=O)[O-])cc1[N+](=O)[O-], which AC50 is on record?
A: > 100 µM (inactive)

Q: With C(=C/c1nccc2c1[nH]c1ccccc12)/c1ccc2c(c1)OCO2 as the molecule, how does the AC50 [2] read?
A: > 100 µM

Q: Which AC50 [2] does the source give for O=C(OCC1COc2ccccc2O1)c1ccccc1F (stereo unspecified) here?
A: > 100 µM

Q: How did the AC50 [1] turn out when O=C(CCNC(=O)c1ccco1)Nc1cccc(Br)c1 was run?
A: > 100 µM

Q: Which AC50 [1] does the source give for COc1cccc(NC(=O)C(C)SCc2ccccc2)c1 (stereo unspecified) here?
A: > 100 µM

Q: With CC(=O)N1CCN(c2nc(-c3cccs3)nc3ccccc23)CC1 as the molecule, how does the AC50 read?
A: > 100 µM (inactive)

Q: Which AC50 does the source give for Cc1ccc(CC2C(=O)N(c3cc(Cl)ccn3)C(=O)C2C)cc1 (stereo unspecified) here?
A: > 100 µM (inactive)

Q: How did the AC50 [1] turn out when CCC(C(=O)NC1CCCC1)n1c(-c2ccnc3ccccc23)nc2ccccc21 (stereo unspecified) was run?
A: > 100 µM

Q: Which AC50 does the source give for COC(=O)c1ccc(OCC(=O)c2ccccc2OC)cc1 here?
A: > 100 µM (inactive)

Q: And the AC50 [1]?
A: > 100 µM

Q: How did the AC50 [1] turn out when Cc1cccc(NC(=O)c2nc(S(=O)(=O)Cc3ccccc3)ncc2Cl)c1 was run?
A: > 100 µM

Q: For CCCNC(=O)c1cc(C2CCCN(S(=O)(=O)c3cccc4cccnc34)C2)on1 (stereo unspecified), which AC50 is on record?
A: > 100 µM (inactive)

Q: How did the AC50 turn out when O=C(NCc1ccco1)c1ccc(COc2cccc3ccccc23)cc1 was run?
A: > 100 µM (inactive)

Q: And the AC50 [1]?
A: > 100 µM

Q: How did the AC50 turn out when COc1cccc(NC(=O)COC(=O)Cc2ccc(Br)cc2)c1 was run?
A: > 100 µM (inactive)

Q: And the AC50 [1]?
A: > 100 µM

Q: Which AC50 [1] does the source give for COC(=O)c1ccc(CSc2nc3ccccc3s2)o1 here?
A: > 100 µM

Q: With O=C(NCCO)c1cc2c([nH]c3ccccc32)c(-c2ccccc2)n1 as the molecule, how does the AC50 read?
A: > 100 µM (inactive)

Q: What about the AC50 [1] of the same molecule?
A: > 100 µM

Q: What about the AC50 [2] of the same molecule?
A: > 100 µM

Q: What does the source list for COC(=O)c1ccc2nc(-c3cccc(Br)c3)c(Cc3ccsc3)n2c1?
A: AC50: > 100 µM (inactive); AC50 [2]: > 100 µM

Q: For CSc1nc2ccc(NS(=O)(=O)c3ccc([N+](=O)[O-])cc3)cc2s1, which AC50 is on record?
A: > 100 µM (inactive)

Q: What about the AC50 [1] of the same molecule?
A: > 100 µM

Q: And the AC50 [2]?
A: > 100 µM

Q: How did the AC50 turn out when Cc1cc(C)n2nc(C(=O)Nc3cccc(S(=O)(=O)N(C)c4ccccc4)c3)nc2n1 was run?
A: > 100 µM (inactive)

Q: With COc1ccc(-c2noc(=O)n2Cc2ccccc2Cl)cc1 as the molecule, how does the AC50 [1] read?
A: > 100 µM

Q: Which AC50 [1] does the source give for O=c1c2ccccc2nc(SCc2ccccc2)n1CC1CCCO1 (stereo unspecified) here?
A: > 100 µM

Q: For O=C(O)CC1(CC(=O)Nc2ccc3sccc3c2)CCCCC1, which AC50 is on record?
A: > 100 µM (inactive)

Q: With COc1ccccc1CNC(=O)CN1C(=O)NC(c2ccccc2)(c2ccccc2)C1=O as the molecule, how does the AC50 read?
A: > 100 µM (inactive)

Q: And the AC50 [1]?
A: > 100 µM

Q: Which results are given for CC(C(=O)Nc1nc2ccccc2s1)n1cc([N+](=O)[O-])cn1 (stereo unspecified)?
A: AC50: > 100 µM (inactive); AC50 [1]: > 100 µM; AC50 [2]: > 100 µM

Q: CCOC(=O)c1cc(-c2ccc(OC)cc2)n[nH]1 was tested. Which AC50 did it give?
A: > 100 µM (inactive)

Q: With Cc1cc(C(=O)Nc2cccc3c2O[C@H](CN(C)S(=O)(=O)c2ccc(Cl)cc2)[C@H](C)CN([C@H](C)CO)C3=O)n(C)n1 as the molecule, how does the AC50 read?
A: > 100 µM (inactive)

Q: What about the AC50 [2] of the same molecule?
A: 32.9 µM

— PubChem BioAssay AID1035470 (Broad Institute, 2014)
